In article PMC4941353, “Interaction of antihistaminic drugs with human translationally controlled tumor protein (TCTP) as novel approach for differentiation therapy” (Oncotarget, 2016):

Assays:
[1] = target: T1, translationally controlled tumor protein (TCTP) (Homo sapiens, UniProt P13693); experiment: microscale thermophoresis with amine-labeled (BLUE-NHS) purified TCTP, buffer with […] chloroform; type: binding
T1 construct: gene TPT1; recombinant human TCTP (172 amino acids), codon-optimized, expressed in E. coli, intein tag cleaved on column
T1 sequence (P13693 1-172): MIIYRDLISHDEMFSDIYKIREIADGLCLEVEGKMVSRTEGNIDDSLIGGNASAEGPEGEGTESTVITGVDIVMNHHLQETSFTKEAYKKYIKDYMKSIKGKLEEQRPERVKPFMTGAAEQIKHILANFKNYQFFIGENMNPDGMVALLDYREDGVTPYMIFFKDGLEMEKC

[2] = target: T1, translationally controlled tumor protein (TCTP); experiment: microscale thermophoresis with amine-labeled (BLUE-NHS) purified TCTP; type: binding

Row | Kd [1] | Kd [2] | Compound
1 | 433 ± 47.1 µM | – | CC(C)(C)c1ccc(CN2CCN(C(c3ccccc3)c3ccc(Cl)cc3)CC2)cc1 (centres unmarked) [buclizine]
2 | – | 57.2 ± 6.49 µM | COc1ccc2c(c1)N(C[C@H](C)CN(C)C)c1ccccc1S2 [levomepromazine]
